From ChEMBL document CHEMBL3991601, “The target landscape of clinical kinase drugs” (Science, 2017)
The source made the active and inactive calls.

Key:
[1] = target: Ribosomal protein S6 kinase alpha-4 (Homo sapiens, UniProt O75676)
[2] = target: Serine/threonine-protein kinase B-raf (Homo sapiens, UniProt P15056)
[3] = target: T1, cGMP-dependent protein kinase 1 (Homo sapiens, UniProt Q13976)
T1 sequence (Q13976 whole entry): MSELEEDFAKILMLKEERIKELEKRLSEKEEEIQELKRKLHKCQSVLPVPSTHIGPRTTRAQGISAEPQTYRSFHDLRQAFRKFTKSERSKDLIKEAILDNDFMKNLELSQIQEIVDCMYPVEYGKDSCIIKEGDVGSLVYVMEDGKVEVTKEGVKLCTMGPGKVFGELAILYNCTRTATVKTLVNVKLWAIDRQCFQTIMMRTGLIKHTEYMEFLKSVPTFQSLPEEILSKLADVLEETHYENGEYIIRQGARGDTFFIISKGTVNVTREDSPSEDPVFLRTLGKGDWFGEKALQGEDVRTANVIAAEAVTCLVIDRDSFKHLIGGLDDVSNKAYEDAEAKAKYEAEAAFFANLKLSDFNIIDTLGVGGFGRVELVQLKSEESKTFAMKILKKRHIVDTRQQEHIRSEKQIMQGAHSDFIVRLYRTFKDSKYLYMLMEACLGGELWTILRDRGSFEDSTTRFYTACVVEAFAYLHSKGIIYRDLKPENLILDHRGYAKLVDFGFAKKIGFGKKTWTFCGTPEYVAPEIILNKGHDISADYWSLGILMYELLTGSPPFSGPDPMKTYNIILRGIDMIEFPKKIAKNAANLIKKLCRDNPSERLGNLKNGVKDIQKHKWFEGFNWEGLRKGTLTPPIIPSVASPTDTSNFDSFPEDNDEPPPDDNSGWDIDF

[4] = target: Casein kinase II subunit alpha' (Homo sapiens, UniProt P19784)
Sequence of Casein kinase II subunit alpha' (P19784 whole entry): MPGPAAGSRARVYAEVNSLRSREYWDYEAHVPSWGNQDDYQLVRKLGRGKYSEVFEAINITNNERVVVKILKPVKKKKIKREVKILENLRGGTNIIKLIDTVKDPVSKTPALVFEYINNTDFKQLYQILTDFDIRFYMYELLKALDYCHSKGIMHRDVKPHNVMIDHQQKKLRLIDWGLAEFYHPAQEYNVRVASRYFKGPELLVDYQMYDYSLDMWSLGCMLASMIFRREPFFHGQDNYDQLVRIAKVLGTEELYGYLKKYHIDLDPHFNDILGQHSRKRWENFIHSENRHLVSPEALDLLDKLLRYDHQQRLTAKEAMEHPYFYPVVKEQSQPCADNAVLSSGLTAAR

[5] = target: Serine/threonine-protein kinase MRCK alpha (Homo sapiens, UniProt Q5VT25)
Sequence of Serine/threonine-protein kinase MRCK alpha (Q5VT25 whole entry): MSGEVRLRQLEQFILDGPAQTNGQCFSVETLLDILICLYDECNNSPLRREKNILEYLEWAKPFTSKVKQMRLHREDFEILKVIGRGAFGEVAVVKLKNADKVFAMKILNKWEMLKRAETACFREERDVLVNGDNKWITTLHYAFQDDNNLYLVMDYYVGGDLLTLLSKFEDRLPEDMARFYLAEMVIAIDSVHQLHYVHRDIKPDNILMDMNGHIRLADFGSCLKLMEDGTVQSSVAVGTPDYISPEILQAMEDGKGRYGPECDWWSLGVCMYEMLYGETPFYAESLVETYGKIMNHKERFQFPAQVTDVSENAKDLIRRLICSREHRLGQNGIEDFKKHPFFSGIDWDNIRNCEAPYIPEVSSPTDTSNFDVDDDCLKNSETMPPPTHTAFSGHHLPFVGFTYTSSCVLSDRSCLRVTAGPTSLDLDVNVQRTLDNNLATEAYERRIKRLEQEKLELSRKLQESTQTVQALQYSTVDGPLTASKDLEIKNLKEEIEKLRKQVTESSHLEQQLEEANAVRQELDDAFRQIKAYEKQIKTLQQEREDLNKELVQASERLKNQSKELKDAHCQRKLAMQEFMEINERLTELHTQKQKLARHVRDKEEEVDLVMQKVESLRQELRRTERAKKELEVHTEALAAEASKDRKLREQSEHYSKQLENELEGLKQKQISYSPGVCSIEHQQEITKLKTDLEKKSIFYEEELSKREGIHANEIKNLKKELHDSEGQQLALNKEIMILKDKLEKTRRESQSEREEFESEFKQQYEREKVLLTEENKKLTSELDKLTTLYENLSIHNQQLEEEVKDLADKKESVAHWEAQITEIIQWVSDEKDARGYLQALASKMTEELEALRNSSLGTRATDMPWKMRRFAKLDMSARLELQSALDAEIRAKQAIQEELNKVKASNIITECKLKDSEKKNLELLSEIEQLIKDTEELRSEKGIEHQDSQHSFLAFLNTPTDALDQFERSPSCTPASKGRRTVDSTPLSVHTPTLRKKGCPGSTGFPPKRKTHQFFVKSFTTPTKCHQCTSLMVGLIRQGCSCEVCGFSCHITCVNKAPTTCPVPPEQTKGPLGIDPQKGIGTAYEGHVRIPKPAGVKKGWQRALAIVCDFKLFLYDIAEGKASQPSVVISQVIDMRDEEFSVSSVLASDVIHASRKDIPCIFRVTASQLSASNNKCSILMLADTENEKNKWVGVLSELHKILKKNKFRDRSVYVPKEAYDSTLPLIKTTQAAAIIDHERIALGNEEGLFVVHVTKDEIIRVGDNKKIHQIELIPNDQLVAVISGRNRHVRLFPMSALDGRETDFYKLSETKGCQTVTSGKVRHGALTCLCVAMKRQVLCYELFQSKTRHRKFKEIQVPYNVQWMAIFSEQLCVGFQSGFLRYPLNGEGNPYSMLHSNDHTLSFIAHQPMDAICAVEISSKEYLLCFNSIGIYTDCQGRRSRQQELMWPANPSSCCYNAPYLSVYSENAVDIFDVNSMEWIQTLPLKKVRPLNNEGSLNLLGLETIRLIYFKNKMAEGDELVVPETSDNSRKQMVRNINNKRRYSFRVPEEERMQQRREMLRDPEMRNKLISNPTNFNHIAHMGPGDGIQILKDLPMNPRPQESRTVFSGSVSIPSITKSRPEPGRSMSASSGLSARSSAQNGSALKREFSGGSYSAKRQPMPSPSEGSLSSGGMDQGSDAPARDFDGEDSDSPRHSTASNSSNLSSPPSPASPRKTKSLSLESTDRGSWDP

TGF-beta receptor type-1 = target: T2, TGF-beta receptor type-1 (Homo sapiens, UniProt P36897)
T2 sequence (P36897 whole entry): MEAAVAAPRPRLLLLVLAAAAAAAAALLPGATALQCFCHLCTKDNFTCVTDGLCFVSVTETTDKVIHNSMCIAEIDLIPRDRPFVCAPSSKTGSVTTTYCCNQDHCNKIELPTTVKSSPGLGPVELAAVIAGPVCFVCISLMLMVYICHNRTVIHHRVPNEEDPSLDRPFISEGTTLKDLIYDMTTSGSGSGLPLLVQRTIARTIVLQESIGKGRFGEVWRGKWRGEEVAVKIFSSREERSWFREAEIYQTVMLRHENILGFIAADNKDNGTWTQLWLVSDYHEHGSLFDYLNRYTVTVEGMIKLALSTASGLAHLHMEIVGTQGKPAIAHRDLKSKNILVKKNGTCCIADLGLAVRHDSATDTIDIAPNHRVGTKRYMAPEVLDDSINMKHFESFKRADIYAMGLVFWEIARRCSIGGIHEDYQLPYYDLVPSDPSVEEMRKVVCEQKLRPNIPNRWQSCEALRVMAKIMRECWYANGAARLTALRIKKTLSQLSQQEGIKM

[6] = target: T3, Signal recognition particle receptor subunit alpha (Homo sapiens, UniProt P08240)
T3 sequence (P08240 whole entry): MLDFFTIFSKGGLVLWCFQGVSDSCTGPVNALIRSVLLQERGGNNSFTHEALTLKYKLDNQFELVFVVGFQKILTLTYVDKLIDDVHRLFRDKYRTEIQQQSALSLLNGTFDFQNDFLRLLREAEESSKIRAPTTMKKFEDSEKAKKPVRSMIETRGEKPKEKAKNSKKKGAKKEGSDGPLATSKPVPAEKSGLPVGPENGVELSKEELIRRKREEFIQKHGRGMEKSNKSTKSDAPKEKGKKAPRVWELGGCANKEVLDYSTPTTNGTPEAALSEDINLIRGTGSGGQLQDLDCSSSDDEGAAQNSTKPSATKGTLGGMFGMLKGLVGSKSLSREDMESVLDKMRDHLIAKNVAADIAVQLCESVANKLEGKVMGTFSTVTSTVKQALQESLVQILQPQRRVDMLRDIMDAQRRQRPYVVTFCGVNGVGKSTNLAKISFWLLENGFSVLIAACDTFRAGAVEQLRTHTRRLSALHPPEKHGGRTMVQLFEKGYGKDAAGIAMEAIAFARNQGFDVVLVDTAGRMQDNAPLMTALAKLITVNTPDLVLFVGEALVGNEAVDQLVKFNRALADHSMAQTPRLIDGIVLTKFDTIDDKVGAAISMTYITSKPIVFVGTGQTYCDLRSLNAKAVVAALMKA

[7] = target: T4, Acyl-CoA dehydrogenase family member 11 (Homo sapiens, UniProt Q709F0)
T4 sequence (Q709F0 whole entry): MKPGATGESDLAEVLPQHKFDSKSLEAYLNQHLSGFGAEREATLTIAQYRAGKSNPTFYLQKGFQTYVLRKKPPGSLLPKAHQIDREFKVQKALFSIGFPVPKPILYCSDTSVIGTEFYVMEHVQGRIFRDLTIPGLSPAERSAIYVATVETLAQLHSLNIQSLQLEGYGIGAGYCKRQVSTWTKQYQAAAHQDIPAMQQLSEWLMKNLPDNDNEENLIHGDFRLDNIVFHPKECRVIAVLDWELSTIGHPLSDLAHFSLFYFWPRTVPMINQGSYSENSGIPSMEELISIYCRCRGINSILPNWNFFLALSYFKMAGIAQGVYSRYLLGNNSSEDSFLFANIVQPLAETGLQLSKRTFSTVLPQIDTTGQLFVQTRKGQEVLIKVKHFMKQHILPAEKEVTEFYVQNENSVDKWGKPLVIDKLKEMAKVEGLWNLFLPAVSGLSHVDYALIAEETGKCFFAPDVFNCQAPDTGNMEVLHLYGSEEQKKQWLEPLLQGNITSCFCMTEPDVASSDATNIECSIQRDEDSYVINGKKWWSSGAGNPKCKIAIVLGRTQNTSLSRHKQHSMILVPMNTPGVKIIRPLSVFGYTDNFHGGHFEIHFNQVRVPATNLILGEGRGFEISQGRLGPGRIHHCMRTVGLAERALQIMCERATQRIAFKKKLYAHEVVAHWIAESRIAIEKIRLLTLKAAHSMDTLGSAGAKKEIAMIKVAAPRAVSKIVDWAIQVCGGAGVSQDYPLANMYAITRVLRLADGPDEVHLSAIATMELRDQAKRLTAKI
Also: in the data inactive means no Kd found up to 30 µM.

Sequence of Ribosomal protein S6 kinase alpha-4 (O75676 whole entry): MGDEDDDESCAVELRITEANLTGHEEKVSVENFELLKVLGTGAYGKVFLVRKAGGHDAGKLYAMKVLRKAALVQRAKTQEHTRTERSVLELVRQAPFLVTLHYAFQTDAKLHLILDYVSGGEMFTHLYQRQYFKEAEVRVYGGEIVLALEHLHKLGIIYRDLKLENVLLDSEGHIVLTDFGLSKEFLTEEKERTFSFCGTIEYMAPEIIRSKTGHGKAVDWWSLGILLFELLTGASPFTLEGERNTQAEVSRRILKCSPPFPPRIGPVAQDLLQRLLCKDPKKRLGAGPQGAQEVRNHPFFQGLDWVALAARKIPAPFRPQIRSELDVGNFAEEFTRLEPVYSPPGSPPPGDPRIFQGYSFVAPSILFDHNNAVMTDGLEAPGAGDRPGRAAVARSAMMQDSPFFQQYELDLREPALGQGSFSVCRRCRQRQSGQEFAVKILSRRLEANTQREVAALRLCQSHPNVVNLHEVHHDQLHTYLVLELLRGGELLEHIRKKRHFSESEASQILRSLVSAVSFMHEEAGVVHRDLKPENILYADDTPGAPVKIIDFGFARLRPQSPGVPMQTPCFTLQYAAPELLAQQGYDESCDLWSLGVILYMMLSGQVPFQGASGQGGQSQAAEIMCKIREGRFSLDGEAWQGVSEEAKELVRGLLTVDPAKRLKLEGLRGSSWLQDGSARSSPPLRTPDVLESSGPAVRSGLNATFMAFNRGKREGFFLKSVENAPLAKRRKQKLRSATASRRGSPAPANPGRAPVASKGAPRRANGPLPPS
Sequence of Serine/threonine-protein kinase B-raf (P15056 whole entry): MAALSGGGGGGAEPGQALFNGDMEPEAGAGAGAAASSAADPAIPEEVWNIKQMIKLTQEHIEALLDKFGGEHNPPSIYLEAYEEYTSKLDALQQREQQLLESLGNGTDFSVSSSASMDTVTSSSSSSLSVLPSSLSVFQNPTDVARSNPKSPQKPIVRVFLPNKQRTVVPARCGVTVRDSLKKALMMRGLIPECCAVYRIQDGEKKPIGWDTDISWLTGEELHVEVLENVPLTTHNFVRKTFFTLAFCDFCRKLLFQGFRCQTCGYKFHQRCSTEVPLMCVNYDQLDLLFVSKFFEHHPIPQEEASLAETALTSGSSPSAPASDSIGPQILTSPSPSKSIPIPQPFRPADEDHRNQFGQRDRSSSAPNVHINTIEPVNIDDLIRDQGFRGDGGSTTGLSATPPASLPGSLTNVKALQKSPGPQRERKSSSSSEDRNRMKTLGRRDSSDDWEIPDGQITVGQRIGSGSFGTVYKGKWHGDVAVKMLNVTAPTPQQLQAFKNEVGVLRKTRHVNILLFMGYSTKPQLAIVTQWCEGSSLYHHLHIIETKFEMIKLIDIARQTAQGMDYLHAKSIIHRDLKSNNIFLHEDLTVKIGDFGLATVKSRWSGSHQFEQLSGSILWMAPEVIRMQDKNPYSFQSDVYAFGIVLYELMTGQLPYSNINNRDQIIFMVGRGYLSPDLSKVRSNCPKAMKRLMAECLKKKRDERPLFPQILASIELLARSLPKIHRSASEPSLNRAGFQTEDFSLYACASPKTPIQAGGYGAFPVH

SMILES | Kd [1] | Kd [2] | Kd [3] | Kd [4] | Kd [5] | Kd (TGF-beta receptor type-1) | Kd [6] | Kd [7]
C[C@@H](Oc1cc(C(=O)Nc2ccc(C(=O)N3CCN(C)CC3)cc2)nnc1N)c1c(Cl)ccc(F)c1Cl | > 30 µM (inactive) | > 30 µM (inactive) | > 30 µM (inactive) | > 30 µM (inactive) | > 30 µM (inactive) | > 30 µM (inactive) | > 30 µM (inactive) | 
CCNC(=O)C#Cc1ccc2c(c1)NC(=O)/C2=C(\Nc1ccc(CN(C)C)cc1)c1ccccc1 | 1.46 µM (active) | > 30 µM (inactive) | > 30 µM (inactive) | > 30 µM (inactive) | > 30 µM (inactive) | > 30 µM (inactive) | > 30 µM (inactive) | > 30 µM (inactive)
C=CC(=O)N1CCC[C@H](n2c(=O)n(-c3ccc(Oc4ccccc4)cc3)c3c(N)ncnc32)C1 | > 30 µM (inactive) | > 30 µM (inactive) | > 30 µM (inactive) | > 30 µM (inactive) | > 30 µM (inactive) | > 30 µM (inactive) | > 30 µM (inactive) | > 30 µM (inactive)
Nc1ncnc2c1c(-c1cccc(OCc3ccccc3)c1)cn2[C@H]1C[C@@H](CN2CCC2)C1 [AEW-541] | > 30 µM (inactive) | > 30 µM (inactive) | > 30 µM (inactive) | > 30 µM (inactive) | > 30 µM (inactive) | > 30 µM (inactive) |  | 
O=C(Nc1c[nH]nc1-c1nc2cc(CN3CCOCC3)ccc2[nH]1)NC1CC1 [AT-9283] |  | > 30 µM (inactive) | > 30 µM (inactive) | 0.065 µM (active) | > 30 µM (inactive) | 0.077 µM (active) | > 30 µM (inactive) | > 30 µM (inactive)
C=CC(=O)Nc1cc2c(Nc3ccc(F)c(Cl)c3)ncnc2cc1C#CC(C)(C)N1CCN(C)CC1 [AV-412 FREE BASE] | > 30 µM (inactive) | > 30 µM (inactive) | > 30 µM (inactive) | > 30 µM (inactive) | > 30 µM (inactive) | > 30 µM (inactive) | > 30 µM (inactive) | 
COc1cc([C@@H]2c3cc4c(cc3[C@H](O)[C@H]3COC(=O)[C@@H]23)OCO4)cc(OC)c1OC [AXL-1717] | > 30 µM (inactive) | > 30 µM (inactive) | > 30 µM (inactive) | > 30 µM (inactive) | > 30 µM (inactive) | > 30 µM (inactive) | > 30 µM (inactive) | 
Cc1nc2cc(-n3ncc(C(=O)c4cc5ccccc5[nH]4)c3N)ccc2[nH]1 [FGFR INHIBITOR DEBIO 1347] | > 30 µM (inactive) | > 30 µM (inactive) | > 30 µM (inactive) | > 30 µM (inactive) | > 30 µM (inactive) | > 30 µM (inactive) | > 30 µM (inactive) | 
Cc1cccc(-c2nn3c(c2-c2ccnc4ccc(C(N)=O)cc24)CCC3)n1 [GALUNISERTIB] | > 30 µM (inactive) | > 30 µM (inactive) | > 30 µM (inactive) | > 30 µM (inactive) | > 30 µM (inactive) |  | > 30 µM (inactive) | > 30 µM (inactive)
CCn1cc(-c2ccnc3[nH]c(-c4cccc(CN(C)C)c4)cc23)c(-c2ccc(NC(=O)N(C)C)cc2)n1 [GSK-1070916] | > 30 µM (inactive) | > 30 µM (inactive) | > 30 µM (inactive) | > 30 µM (inactive) | > 30 µM (inactive) | 1.94 µM (active) |  | > 30 µM (inactive)
O=C(Nc1cc(C(F)(F)F)cc(C(F)(F)F)c1)c1cc(Cl)ccc1O [IMD-0354] | > 30 µM (inactive) | > 30 µM (inactive) | > 30 µM (inactive) | > 30 µM (inactive) |  | > 30 µM (inactive) | > 30 µM (inactive) | > 30 µM (inactive)
CN(C[C@@H]1COCCO1)S(=O)(=O)Nc1ccc2ccc3ncc(-c4cnn(C)c4)cc3c(=O)c2c1 [MK-2461] | > 30 µM (inactive) | > 30 µM (inactive) | > 30 µM (inactive) | > 30 µM (inactive) | > 30 µM (inactive) | > 30 µM (inactive) | > 30 µM (inactive) | 
CCOc1cc2ncc(C#N)c(Nc3ccc(F)c(Cl)c3)c2cc1NC(=O)/C=C/CN(C)C [PELITINIB] | > 30 µM (inactive) | > 30 µM (inactive) | > 30 µM (inactive) | > 30 µM (inactive) | > 30 µM (inactive) | > 30 µM (inactive) |  | > 30 µM (inactive)
CCCCCCCCCCCCCCCCCCOP(=O)([O-])OC1CC[N+](C)(C)CC1 [PERIFOSINE] | > 30 µM (inactive) | > 30 µM (inactive) | > 30 µM (inactive) | > 30 µM (inactive) | > 30 µM (inactive) | > 30 µM (inactive) | > 30 µM (inactive) | 
Cc1nc(Nc2n[nH]c3c2CN(C(=O)N[C@H](CN(C)C)c2ccccc2)C3(C)C)c2sccc2n1 [PF-03758309] |  | > 30 µM (inactive) | 0.808 µM (active) | > 30 µM (inactive) | > 30 µM (inactive) | > 30 µM (inactive) | > 30 µM (inactive) | > 30 µM (inactive)
N#CC1(c2ccc(NC(=O)c3cccnc3NCc3ccncc3)cc2)CCCC1 [RIVOCERANIB] | > 30 µM (inactive) | > 30 µM (inactive) | > 30 µM (inactive) | > 30 µM (inactive) | > 30 µM (inactive) | > 30 µM (inactive) |  | > 30 µM (inactive)
Cn1ncc(Cl)c1-c1cc(C(=O)N[C@H](CN)Cc2ccc(F)c(F)c2)oc1Cl [UPROSERTIB] | > 30 µM (inactive) | > 30 µM (inactive) | > 30 µM (inactive) | > 30 µM (inactive) | > 30 µM (inactive) | > 30 µM (inactive) | > 30 µM (inactive) | 
CC(C)c1cc(CNc2nc(Nc3cc(C4CC4)[nH]n3)cc(N3CCN(C)CC3)n2)on1 [XL-228] | > 30 µM (inactive) | > 30 µM (inactive) | > 30 µM (inactive) | 2.44 µM (active) | > 30 µM (inactive) |  | > 30 µM (inactive) | > 30 µM (inactive)
